Measurements reported in patent US4997829A, “Penem compounds, and use thereof” (Suntory Limited, priority 1985, dated 1991).

Key:
[1] = literature; cited from earlier work
S. aureus Smith = assay: Therapeutic effect against experimental infection in mice (ED50); assay type: in vivo, S. aureus; ICR strain male mice; conditions: oral; survival after 6 days, Probit method; 8640 min
Method: (§1) Out of the novel compound obtained according to this invention, SUN 4435 was selected to carry out a treatment experiment with infected animals. As an animal, there were employed ICR strain male mice (5-weeks aged, with an average body weight of 29.1 g), which were infected intraperitoneally with a test microorganism, S. aureus Smith or E. coli KC-14, and 24 hours later, treated by subcutaneous or oral application of SUN 4435 or SUN 5555. ED50 values were determined from the survival rates found after 6 days in accordance with the Probit method.

E. coli KC-14 = assay: as above; assay type: in vivo, E. coli; ICR strain male mice; conditions: oral; survival after 6 days, Probit method; 8640 min
Method: as §1

Acute toxicity test = assay type: in vivo; conditions: intravenous
Method: Out of the novel compounds obtained according to this invention, SUN 4435 and SUN 5555 were selected to carry out an acute toxicity test. As an animal, there were employed ICR strain mice (4-weeks aged), which were treated by oral and intravenous application of the compounds.

A. calcoaceticus = assay: Sensitivity of clinically isolated strains; assay type: cell-based; conditions: Acinetobacter calcoaceticus; clinical isolates
Method: (§2) With regard to the novel compound, SUN 5555, as obtained according to this invention, sensitivities were determined toward the S. aureus strain 87, E. coli strain 88, Klebsiella sp. strain 63, P. mirabillis strain 30, P. vulgaris strain 41, M. morganii strain 29, P. rettgeri strain 17, S. marcescens strain 88, A. calcoaceticus strain 57 and H. influenza strain 25. The determinations were carried out in accordance with the minimal growth inhibitory concentration measuring method as specified by The Chemotherapeutic Society of Japan, with the results being shown […], respectively.

E. coli = assay: Sensitivity of clinically isolated strains; assay type: cell-based; conditions: Escherichia coli; clinical isolates
Method: as §2

H. influenza = assay: Sensitivity of clinically isolated strains; assay type: cell-based; conditions: clinical isolates
Method: as §2

Klebsiella sp. = assay: Sensitivity of clinically isolated strains; assay type: cell-based; conditions: clinical isolates
Method: as §2

M. morganii = assay: Sensitivity of clinically isolated strains; assay type: cell-based; conditions: Morganella morganii; clinical isolates
Method: as §2

[2] = tested on: Methycillin-resistant S. aureus; assay: Sensitivity of clinically isolated strains; assay type: cell-based; conditions: Staphylococcus aureus
Method: as §2

P. mirabillis = assay: Sensitivity of clinically isolated strains; assay type: cell-based; conditions: clinical isolates
Method: as §2

P. rettgeri = assay: Sensitivity of clinically isolated strains; assay type: cell-based; conditions: Providencia rettgeri; clinical isolates
Method: as §2

P. vulgaris = assay: Sensitivity of clinically isolated strains; assay type: cell-based; conditions: Proteus vulgaris
Method: as §2

S. aureus = assay: Sensitivity of clinically isolated strains; assay type: cell-based; conditions: Staphylococcus aureus; clinical isolates
Method: as §2

S. marcescens = assay: Sensitivity of clinically isolated strains; assay type: cell-based; conditions: Serratia marcescens; clinical isolates
Method: as §2

S. pyogenenes = assay: Sensitivity of clinically isolated strains; assay type: cell-based; conditions: clinical isolates

Which activity [1] does the source give for `CCSC1=C(C(=O)O)N2C(=O)[C@H]([C@@H](C)O)[C@H]2S1` [Sch 29482] here?
Its activity is “strong activity”.

What does the source list for `C[C@@H](O)[C@H]1C(=O)N2C(C(=O)O)=C([C@H]3CCCO3)S[C@H]12` [SUN 5555, Sodium (1'R, 2"R, 5R, 6S)-6-(1'-hydroxyethyl)-2-(2"-tetrahydofuranyl)penem-3-carboxylate]?
ED50 (S. aureus Smith): 5.6 mg/kg; ED50 (E. coli KC-14): 13.9 mg/kg; survival (Acute toxicity test; 3 g/kg, two male and female mice): survived; survival (Acute toxicity test; 5 g/kg, five male mice): one out of five male mice; MIC50 (A. calcoaceticus): 6.25 µg/mL; MIC90 (A. calcoaceticus): 25 µg/mL; MIC50 (E. coli): 0.78 µg/mL; MIC90 (E. coli): 1.56 µg/mL; MIC50 (H. influenza): 0.39 µg/mL; MIC90 (H. influenza): 0.78 µg/mL; MIC50 (Klebsiella sp.): 0.78 µg/mL; MIC90 (Klebsiella sp.): 1.56 µg/mL; MIC50 (M. morganii): 1.56 µg/mL; MIC90 (M. morganii): 6.25 µg/mL; MIC50 [2]: 1.56 µg/mL; MIC90 [2]: > 100 µg/mL; MIC50 (P. mirabillis): 3.13 µg/mL; MIC90 (P. mirabillis): 6.25 µg/mL; MIC50 (P. rettgeri): 1.56 µg/mL; MIC90 (P. rettgeri): 6.25 µg/mL; MIC50 (P. vulgaris): 3.13 µg/mL; MIC90 (P. vulgaris): 6.25 µg/mL; MIC50 (S. aureus): 0.1 µg/mL; MIC90 (S. aureus): 0.2 µg/mL; MIC50 (S. marcescens): 1.56 µg/mL; MIC90 (S. marcescens): 6.25 µg/mL; MIC50 (S. pyogenenes): < 0.025 µg/mL; MIC90 (S. pyogenenes): < 0.025 µg/mL

Which activity [1] does the source give for `C[C@@H](O)[C@@H]1C(=O)N2C(C(=O)O)=C(SCCN)S[C@H]12` [1-thiathienamycin] here?
Its activity is “strong activity”.
